For eleven compounds, MIC80 results are on record in ChEMBL document CHEMBL1641470, “New azoles with antifungal activity: Design, synthesis, and molecular docking” (2011).

Molecules are shown by their SMILES. Converted amounts (≈) assume the structure as drawn.

Holding throughout (type): functional
One experiment concerns Fusarium. Nature of the experiment: Antifungal activity against Fusarium by broth microdilution method. For orientation: In broth dilution the organism is exposed to a series of concentrations in liquid medium.
A further experiment deals with Candida tropicalis. Nature of the experiment: Antifungal activity against Candida tropicalis by broth microdilution method.
The subject of another experiment is Cryptococcus neoformans. Nature of the experiment: Antifungal activity against Cryptococcus neoformans ATCC BLS108 after 72 hrs by broth microdilution method.
The test system of the next experiment is Candida albicans. Nature of the experiment: Antifungal activity against Candida albicans ATCC Y0109 after 24 hrs by broth microdilution method.
The subject of the next experiment is Aspergillus fumigatus. Nature of the experiment: Antifungal activity against Aspergillus fumigatus by broth microdilution method.
The test system of the next experiment is Candida parapsilosis. Nature of the experiment: Antifungal activity against Candida parapsilosis by broth microdilution method. Particulars: Lodderomyces parapsilosis.
The test system of the next experiment is Nannizzia gypsea. Nature of the experiment: Antifungal activity against Microsporum gypseum by broth microdilution method.
The next experiment has as its system Trichophyton rubrum. Nature of the experiment: Antifungal activity against Trichophyton rubrum by broth microdilution method.

As a reminder, the MIC80 is an inhibitory concentration at the 80% level, which refers to growth in some studies and to a panel of isolates in others. The low end stands for higher susceptibility, the high end for lower susceptibility. For the compound `O=C(/C=C/c1ccc(Br)cc1)Nc1ccc(N2CCN(CC(O)(Cn3cncn3)c3ccc(F)cc3F)CC2)cc1` (stereo not drawn), the MIC80 amounted to 1 µg/mL (≈ 1.6 µM) against Fusarium; 0.25 µg/mL (≈ 0.401 µM) against Candida tropicalis; 0.25 µg/mL (≈ 0.401 µM) against Cryptococcus neoformans; 0.0625 µg/mL (≈ 0.1 µM) against Candida albicans; 4 µg/mL (≈ 6.42 µM) against Aspergillus fumigatus; 0.25 µg/mL (≈ 0.401 µM) against Candida parapsilosis. Besides, the MIC80 was determined as 0.25 µg/mL (≈ 0.401 µM) against Nannizzia gypsea and 0.0156 µg/mL (≈ 0.025 µM) with Trichophyton rubrum.
Take `N#Cc1cccc(/C=C/C(=O)Nc2ccc(N3CCN(CC(O)(Cn4cncn4)c4ccc(F)cc4F)CC3)cc2)c1` (stereo not drawn): the MIC80 was 16 µg/mL (≈ 28.1 µM) against Fusarium; 0.25 µg/mL (≈ 0.439 µM) against Candida tropicalis; 1 µg/mL (≈ 1.76 µM) against Cryptococcus neoformans; 0.0156 µg/mL (≈ 0.0274 µM) in the experiment with Candida albicans; greater than 64 µg/mL against Aspergillus fumigatus; 0.25 µg/mL (≈ 0.439 µM) against Candida parapsilosis. The MIC80 worked out at 0.0625 µg/mL (≈ 0.11 µM) in the experiment with Nannizzia gypsea and 1 µg/mL (≈ 1.76 µM) against Trichophyton rubrum.
`O=C(/C=C/c1cccc(Cl)c1)Nc1ccc(N2CCN(CC(O)(Cn3cncn3)c3ccc(F)cc3F)CC2)c(F)c1` (stereo not drawn): the MIC80 in the experiment on Fusarium was 1 µg/mL (≈ 1.67 µM); with Candida tropicalis, 0.0625 µg/mL (≈ 0.105 µM); against Cryptococcus neoformans it was 0.25 µg/mL (≈ 0.419 µM); with Candida albicans it was 1 µg/mL (≈ 1.67 µM); in the experiment with Aspergillus fumigatus, 1 µg/mL (≈ 1.67 µM); against Candida parapsilosis, 0.25 µg/mL (≈ 0.419 µM). Also, the MIC80 in the experiment with Nannizzia gypsea was found to be 0.0625 µg/mL (≈ 0.105 µM); with Trichophyton rubrum, 0.25 µg/mL (≈ 0.419 µM).
Take `N#Cc1ccc(/C=C/C(=O)Nc2ccc(N3CCN(CC(O)(Cn4cncn4)c4ccc(F)cc4F)CC3)c(F)c2)cc1` (stereo not drawn): the MIC80 against Fusarium was 64 µg/mL (≈ 109 µM); with Candida tropicalis, 1 µg/mL (≈ 1.7 µM); in the experiment with Cryptococcus neoformans, 1 µg/mL (≈ 1.7 µM); in the experiment with Candida albicans it was 0.25 µg/mL (≈ 0.425 µM); in the experiment on Aspergillus fumigatus it was greater than 64 µg/mL; in the experiment on Candida parapsilosis, 1 µg/mL (≈ 1.7 µM). In addition, the MIC80 in the experiment with Nannizzia gypsea and in the experiment on Trichophyton rubrum was 4 µg/mL (≈ 6.81 µM) each time.
In the case of `Cc1ccc(/C=C/C(=O)Nc2ccc(N3CCN(CC(O)(Cn4cncn4)c4ccc(F)cc4F)CC3)c(F)c2)cc1` (stereo not drawn), the MIC80 turned out to be 1 µg/mL (≈ 1.73 µM) in the experiment with Fusarium; 0.0625 µg/mL (≈ 0.108 µM) in the experiment with Candida tropicalis; 4 µg/mL (≈ 6.94 µM) against Cryptococcus neoformans; 0.25 µg/mL (≈ 0.434 µM) with Candida albicans; 1 µg/mL (≈ 1.73 µM) with Aspergillus fumigatus; 1 µg/mL (≈ 1.73 µM) against Candida parapsilosis. The MIC80 in the experiment on Nannizzia gypsea and with Trichophyton rubrum was 0.25 µg/mL (≈ 0.434 µM) each time.
As for `O=C(/C=C/c1cccc(Cl)c1)Nc1ccc(N2CCN(CC(O)(Cn3cncn3)c3ccc(F)cc3F)CC2)cc1` (stereo not drawn), the MIC80 was determined as 64 µg/mL (≈ 111 µM) against Fusarium; 0.25 µg/mL (≈ 0.432 µM) against Candida tropicalis; 1 µg/mL (≈ 1.73 µM) against Cryptococcus neoformans; 0.0625 µg/mL (≈ 0.108 µM) against Candida albicans; 64 µg/mL (≈ 111 µM) in the experiment with Aspergillus fumigatus; 1 µg/mL (≈ 1.73 µM) against Candida parapsilosis. Moreover, the MIC80 was found to be 0.0156 µg/mL (≈ 0.0269 µM) in the experiment on Nannizzia gypsea and 1 µg/mL (≈ 1.73 µM) in the experiment with Trichophyton rubrum.
With `O=C(/C=C/c1ccc(Cl)c(Cl)c1)Nc1ccc(N2CCN(CC(O)(Cn3cncn3)c3ccc(F)cc3F)CC2)cc1` (stereo not drawn), the MIC80 with Fusarium was found to be 0.25 µg/mL (≈ 0.408 µM); against Candida tropicalis, 0.0625 µg/mL (≈ 0.102 µM); in the experiment on Cryptococcus neoformans, 0.25 µg/mL (≈ 0.408 µM); in the experiment on Candida albicans, 0.0156 µg/mL (≈ 0.0254 µM); against Aspergillus fumigatus, 4 µg/mL (≈ 6.52 µM); against Candida parapsilosis, 0.0625 µg/mL (≈ 0.102 µM). Also, the MIC80 was determined as 0.25 µg/mL (≈ 0.408 µM) with Nannizzia gypsea and 0.0156 µg/mL (≈ 0.0254 µM) in the experiment on Trichophyton rubrum.
On to `O=C(/C=C/c1ccc(Cl)c(Cl)c1)Nc1ccc(N2CCN(CC(O)(Cn3cncn3)c3ccc(F)cc3F)CC2)c(F)c1` (stereo not drawn), for which the MIC80 in the experiment on Fusarium came out at 0.25 µg/mL (≈ 0.396 µM); with Candida tropicalis, 0.0625 µg/mL (≈ 0.099 µM); against Cryptococcus neoformans, 1 µg/mL (≈ 1.58 µM); with Candida albicans, 1 µg/mL (≈ 1.58 µM); in the experiment with Aspergillus fumigatus, 4 µg/mL (≈ 6.33 µM); against Candida parapsilosis it was 0.25 µg/mL (≈ 0.396 µM). Moreover, the MIC80 in the experiment with Nannizzia gypsea is 0.25 µg/mL (≈ 0.396 µM); against Trichophyton rubrum, 0.0625 µg/mL (≈ 0.099 µM).
Take `O=C(/C=C/c1ccccc1Cl)Nc1ccc(N2CCN(CC(O)(Cn3cncn3)c3ccc(F)cc3F)CC2)c(F)c1` (stereo not drawn): the MIC80 is 1 µg/mL (≈ 1.67 µM) against Fusarium; 0.25 µg/mL (≈ 0.419 µM) against Candida tropicalis; 1 µg/mL (≈ 1.67 µM) in the experiment with Cryptococcus neoformans; 1 µg/mL (≈ 1.67 µM) against Candida albicans; 4 µg/mL (≈ 6.7 µM) in the experiment with Aspergillus fumigatus; 0.25 µg/mL (≈ 0.419 µM) in the experiment with Candida parapsilosis. The MIC80 in the experiment with Nannizzia gypsea and against Trichophyton rubrum was 0.25 µg/mL (≈ 0.419 µM) in each case.
For the compound `O=C(/C=C/c1cccc([N+](=O)[O-])c1)Nc1ccc(N2CCN(CC(O)(Cn3cncn3)c3ccc(F)cc3F)CC2)c(F)c1` (stereo not drawn), the MIC80 was 0.0625 µg/mL (≈ 0.103 µM) against Fusarium; 0.0625 µg/mL (≈ 0.103 µM) with Candida tropicalis; 0.0625 µg/mL (≈ 0.103 µM) with Cryptococcus neoformans; 0.0039 µg/mL (≈ 0.00642 µM) in the experiment on Candida albicans; greater than 64 µg/mL against Aspergillus fumigatus; 0.0625 µg/mL (≈ 0.103 µM) in the experiment with Candida parapsilosis. The MIC80 against Nannizzia gypsea and against Trichophyton rubrum was 0.0625 µg/mL (≈ 0.103 µM) throughout.
With `O=C(/C=C/c1ccc(Cl)cc1)Nc1ccc(N2CCN(CC(O)(Cn3cncn3)c3ccc(F)cc3F)CC2)c(F)c1` (stereo not drawn), the MIC80 is 0.25 µg/mL (≈ 0.419 µM) in the experiment with Fusarium; 0.0625 µg/mL (≈ 0.105 µM) in the experiment with Candida tropicalis; 0.25 µg/mL (≈ 0.419 µM) in the experiment with Cryptococcus neoformans; 0.25 µg/mL (≈ 0.419 µM) with Candida albicans; 1 µg/mL (≈ 1.67 µM) against Aspergillus fumigatus; 0.0156 µg/mL (≈ 0.0261 µM) against Candida parapsilosis. Also, the results for the MIC80 against Nannizzia gypsea and in the experiment on Trichophyton rubrum were 0.0625 µg/mL (≈ 0.105 µM) and 0.25 µg/mL (≈ 0.419 µM), respectively.
